Columns and labels:
[1] = 298.1 K; 101.33 kPa; Liquid; Vibrating tube method
[2] = osmotic coefficient (dimensionless); mn = molality of the nth substance listed, in mol/kg; settings: 298.15 K, Liquid, isopiestic method

CO [methanol]
Settings	mass density [kg/m3]
[1]	787.5

CO [methanol] + CC(=O)Nc1ccc(O)cc1
[2]
Settings	osmotic coefficient
m1 = 0.0931	0.998
m1 = 0.1398	1.001
m1 = 0.2163	1.001
m1 = 0.3514	1
m1 = 0.5633	1.002
m1 = 1.006	1.009
m1 = 1.236	1.01
m1 = 1.4	1.015
m1 = 1.578	1.017
m1 = 1.866	1.02
m1 = 2.465	1.027
m1 = 2.762	1.033
m1 = 3.096	1.041
m1 = 3.56	1.055
m1 = 3.974	1.068
m1 = 4.175	1.075
m1 = 4.812	1.099
m1 = 5.316	1.12
m1 = 6.17	1.159
m1 = 6.418	1.171
m1 = 6.833	1.19
m1 = 7.073	1.21
